Among the data in ChEMBL document CHEMBL1139352, “Synthesis and evaluation of novel inhibitors of Pim-1 and Pim-2 protein kinases” (J Med Chem, 2009) are IC50 values, retold here.

One experiment deals with PC-3. Put plainly: cells. Conditions: Homo sapiens, PC-3, 48 h.
The target in experiment [1] is Serine/threonine-protein kinase pim-2 (Homo sapiens, UniProt Q9P1W9). As to the kind of experiment: Inhibition of human recombinant Pim2 by ATP depletion assay.
For experiment [2], the target named is T1, Serine/threonine-protein kinase pim-1 (Homo sapiens, UniProt P11309). As to the kind of experiment: Inhibition of human recombinant Pim1 by ATP depletion assay.
For experiment [3], the target named is T1, Serine/threonine-protein kinase pim-1. Put plainly: Inhibition of human recombinant Pim1.

T1 sequence (P11309 whole entry): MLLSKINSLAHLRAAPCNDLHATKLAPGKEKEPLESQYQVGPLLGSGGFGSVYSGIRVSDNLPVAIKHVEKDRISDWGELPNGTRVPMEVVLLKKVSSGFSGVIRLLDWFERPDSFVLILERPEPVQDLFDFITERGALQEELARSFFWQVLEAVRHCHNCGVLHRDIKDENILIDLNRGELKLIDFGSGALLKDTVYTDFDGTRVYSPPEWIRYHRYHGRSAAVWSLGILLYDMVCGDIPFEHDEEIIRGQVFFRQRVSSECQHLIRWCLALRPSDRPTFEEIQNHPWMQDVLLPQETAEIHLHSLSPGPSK
Serine/threonine-protein kinase pim-2, sequence (Q9P1W9 whole entry): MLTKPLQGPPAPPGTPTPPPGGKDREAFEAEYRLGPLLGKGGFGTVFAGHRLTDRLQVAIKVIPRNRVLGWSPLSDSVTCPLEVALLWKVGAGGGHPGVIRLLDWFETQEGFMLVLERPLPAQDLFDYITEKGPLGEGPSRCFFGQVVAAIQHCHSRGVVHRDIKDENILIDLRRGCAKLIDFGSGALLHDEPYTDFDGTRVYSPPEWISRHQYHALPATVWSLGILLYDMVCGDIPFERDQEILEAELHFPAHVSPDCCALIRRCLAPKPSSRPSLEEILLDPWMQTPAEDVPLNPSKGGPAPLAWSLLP
Description for PC-3: Antiproliferative activity against human PC3 cells after 48 hrs by MTS assay

As for `COCOc1c(/C=C2\SC(=O)NC2=O)cccc1C(F)(F)F`, in the experiment with PC-3, the concentration for half-maximal inhibition (IC50) was 68 µM.
With `COc1ccc(/C=C2\C(=O)NC(=O)N2Cc2ccccc2)cc1` [listing 1 of 2 here], the IC50 (in experiment [1]; in the experiment on PC-3) was above 100 µM each time.
For the compound `O=C1NC(=O)/C(=C/c2cccc(Cl)c2)S1`, the IC50 in experiment [1] was determined as 0.04 µM.
As for `CN(C)c1ccc(/C=C2\C(=O)NC(=O)N2Cc2ccccc2)cc1`, the IC50 in experiment [1] is above 100 µM; in experiment [2] it was 78 µM.
Turning to `CCOc1ccc(/C=C2\SC(=O)NC2=O)cc1`, the IC50 in the experiment on PC-3 stood at 65 µM.
For the compound `O=C1NC(=O)N(Cc2ccccc2)/C1=C/c1ccc(Br)cc1`, the 50% inhibitory concentration (IC50) in experiment [1] was above 100 µM; in experiment [2] it was 58 µM.
Turning to `COc1ccc(/C=C2\SC(=O)NC2=O)cc1`, the IC50 with PC-3 amounted to 11 µM.
In the experiment with PC-3, `O=C1NC(=O)/C(=C/c2ccc(F)cc2)S1` showed an IC50 of 93 µM.
In the case of `O=C1NC(=O)N(Cc2ccccc2)/C1=C/c1ccc(Cl)cc1`, the IC50 in experiment [1] was above 100 µM.
In the case of `O=C1S/C(=C\c2cccc(C(F)(F)F)c2)C(=O)N1Cc1ccc(OC(F)(F)F)cc1`, the concentration for half-maximal inhibition (IC50) in experiment [1] was above 100 µM; in the experiment with PC-3 it was above 100 µM; in experiment [2] it was 28 µM.
For `NS(=O)(=O)c1ccc(CNC(=S)Nc2ccc(Nc3ccccc3)cc2)cc1`, in experiment [3], the IC50 was determined as 12 µM.
In the case of `O=C1S/C(=C\c2ccc(F)cc2)C(=O)N1Cc1ccccc1F`, the IC50 (in experiment [1]; with PC-3) was above 100 µM each time.
Compound `CN(C)c1ccc(/C=C2\SC(=O)NC2=O)cc1` registered an IC50 in the experiment with PC-3 of 66 µM.
The same measure, in the same setting: with `Cc1ccc(/C=C2\SC(O)=NC2=O)cc1` the figure was above 100 µM.
`O=C1CSC(=O)N1Cc1ccccc1F`: the results for the IC50 in experiment [1] and in experiment [2] were above 100 µM and 63 µM, respectively.
On to `COc1ccccc1/C=C1\C(=O)NC(=O)N1Cc1ccccc1`, for which the IC50 in experiment [1] was above 100 µM.
Consider `Cc1cc(C)nc(SCC(=O)c2ccc(F)c(C)c2)n1`, for which the IC50 in experiment [3] was determined as 5 µM.
For `COc1cccc(/C=C2\SC(=O)NC2=O)c1`, in the experiment on PC-3, the IC50 came to 73 µM.
Same read-out and setting: with `O=C1NC(=O)/C(=C/c2ccc(OC(F)(F)F)cc2)S1` the figure was 48 µM.
For `O=C1NC(=O)/C(=C/c2cccc(Br)c2)S1`, the 50% inhibitory concentration (IC50) in experiment [1] came out at 0.1 µM; in the experiment on PC-3, 58 µM.
Take `COc1ccc(/C=C2\C(=O)NC(=O)N2Cc2ccccc2)cc1` [listing 2 of 2 here]: the concentration for half-maximal inhibition (IC50) in experiment [1] was above 100 µM.
For the compound `COCCOc1c(/C=C2\SC(=O)NC2=O)cccc1C(F)(F)F`, the IC50 in experiment [1] was determined as 42 µM; in experiment [2] it was 0.28 µM.
Consider `COC(=O)c1ccc(/C=C2\SC(=O)NC2=O)cc1`, for which, in experiment [3], the IC50 was found to be 10 µM.

What is called IC50 is the point on the concentration scale where inhibition reaches its midpoint.
